Measured values as given in US8361743B2, “Biological production of zeaxanthin and carotenoid biosynthesis control” (Aquapharm Bio-Discovery Ltd., priority 2005, dated 2013).

Tested on: strain AQP096
Experiment: Induction of the carotenoid biosynthetic pathway using menadione, HPLC carotenoid analysis
Assay type: cell-based, Algibacter sp. AQP096
Experimental: On the HPLC using a reverse phase Gemini C-18 250×4.6 mm column, 10 μl of pigment sample was eluted with a linear gradient from 10% v/v Acetone in Water: 100% Acetone (30:70) to 10% v/v Acetone in Water:100% Acetone (5:95) for 10 min followed with a 6 minute run of 10% v/v Acetone in Water:100% Acetone (5:95) before returning to the start conditions of 10% v/v Acetone in Water: 100% Acetone (30:70) with a 1 min linear gradient and a two minute run of 10% v/v Acetone in Water:100% Acetone (30:70) at a flow rate of 1.3 ml/min. Detection was at 450 nm. Menadione at a concentration of 0.100 mg/ml was added to a 24 hr old culture of AQP096 cultured in marine broth. This culture was further incubated for 4 days on the orbital shaker at 220 rpm […]. After 5 days of incubation, cultures were centrifuged (4,500 rpm, 20 min) and the pigments analysed for carotenoid content by HPLC (See FIGS. 4a and 4b).

Structure (SMILES): CC1=CC(=O)c2ccccc2C1=O [menadione]
- induced production of astaxanthin (menadione 0.100 mg/ml): ~12%
- induced production of beta carotene (menadione 0.100 mg/ml): about 10%
- induced production of beta-cryptoxanthin (menadione 0.100 mg/ml): ~8%
- induced production of canthaxanthin (menadione 0.100 mg/ml): ~12%
- induced production of lycopene (menadione 0.100 mg/ml): ~6%
- induced production of other carotenoids such as adonirubin and 3-hydroxyechinenone (menadione 0.100 mg/ml): ~2%
- effect on carotenoid production (menadione 0.100 mg/ml added to 24 hr old culture in marine broth, HPLC): induced the production of all carotenoids associated with the standard carotenoid biosynthetic pathway
- amount of zeaxanthin produced by AQP096 (menadione 0.100 mg/ml, 98% under standard growth conditions): around 60%
